Source: patent publication US4265901A, “2-Oxybenzimidazoline compounds” (priority 1979, dated 1981)
“And” between values parts separate entries of the source, which are not always exact repeats. Identical values can stand only once. Counter-ions that a name gives are not always drawn.

Assays:
[1] = system: Corn; experiment: Pre-emergence herbicide test, corn; format: in vivo, Zea mays
Procedure: (§1) In this evaluation, each compound to be tested was dissolved in a 1:1 mixture of acetone and ethanol containing a small amount of Toximul R and Toximul S (each a sulfonate/nonionic blend produced by Stepan Chemical Company, Northfield, Illinois). The solution was then diluted with deionized water to a composition of the following concentrations, by weight: Plant species used as indicators of herbicidal activity were planted in galvanized pans (flats) 31.5 cm. long, 21.5 cm. wide, and 8.0 cm. deep. The bottoms of the flats had holes to facilitate drainage. The soil used was a 1:1 ratio by volume of masonry sand and shredded top soil. Seeds of seven indicator species were planted in rows perpendicular to the long axis of the flat, one species per row, and covered with 0.5 to 1.0 cm. of sterilized soil. Indicator species and approximate number of seeds planted were as follows: Flats that were to receive preemergence treatments were planted one day prior to, or on the same day treatments were applied. Flats that were to receive postemergence treatments were planted 9 days prior to treatment and placed in a growth chamber until the day of treatment. In the growth chamber, flats received 12 to 18 hours of light per day and were subject to temperatures of 75° to 85° F. The formulated test compound was applied uniformly to the indicator species with a modified DeVilbiss atomizer using air pressure of 3 to 5 psi. Each flat received 12.5 ml. of spray solution which was equal to 200 gallons/acre total spray volume. Plants were maintained in a greenhouse after treatment. Herbicidal effects of chemicals were evaluated by two injury rating systems 18 days after preemergence applications and 14 days after postemergence applications. The degree of plant injury was based on a 1 to 5 scale and a single numerical rating was assigned to each test species as follows: […]

[2] = system: Pigweed; experiment: Pre-emergence herbicide test, pigweed; format: in vivo, Amaranthus retroflexus
Procedure: as §1

[3] = system: Foxtail; experiment: Pre-emergence herbicide test, foxtail; format: in vivo, Setaria italica
Procedure: as §1

[4] = system: Morning-glory; experiment: Pre-emergence herbicide test, morningglory; format: in vivo, Ipomoea purpurea
Procedure: as §1

[5] = system: Zinnia; experiment: Pre-emergence herbicide test, zinnia; format: in vivo, Zinnia elegans
Procedure: as §1

[6] = system: Large Crabgrass; experiment: Post-emergence herbicide test, large crabgrass; format: in vivo, Digitaria sanguinalis
Procedure: as §1

[7] = system: Pigweed; experiment: Post-emergence herbicide test, pigweed; format: in vivo, Amaranthus retroflexus
Procedure: as §1

[8] = system: Foxtail; experiment: Post-emergence herbicide test, foxtail; format: in vivo, Setaria italica
Procedure: as §1

[9] = system: Velvetleaf; experiment: Post-emergence herbicide test, velvetleaf; format: in vivo, Abutilon theophrasti
Procedure: as §1

[10] = system: Morning-glory; experiment: Post-emergence herbicide test, morningglory; format: in vivo, Ipomoea purpurea
Procedure: as §1

[11] = system: Zinnia; experiment: Post-emergence herbicide test, zinnia; format: in vivo, Zinnia elegans
Procedure: as §1

[12] = system: Southern armyworm; experiment: Southern armyworm test; format: in vivo, Spodoptera eridania; settings: 1000 ppm, 4 days; further: ranges in brackets are in %
Procedure: In this evaluation, each compound to be tested was dissolved in a 1:1 mixture of acetone and ethanol containing a small amount of Toximul R and Toximul S (each a sulfonate/nonionic blend produced by Stephan Chemical Company, Northfield, Ill.). The solution was then diluted with distilled water to a concentration of 1000 ppm of test compound.
This test was conducted with second to third instar larvae of Spodoptera eridania Cramer, Order Lepidoptera, Family Noctuidae. Uniform larvae (3rd instar) about 1 to 1.2 cm. in length were picked by hand from flats of Henderson lima beans and placed in plastic petri dishes.
The procedure otherwise was the same as used with the Mexican bean beetle reported above, except that 5 ml. of a formulation containing 100 ppm (0.01%) DDT [1,1,1-trichloro-2,2-bis(p-chlorophenyl)ethane] was used as the reference standard.

[13] = system: two-spotted spider mite; experiment: Two-spotted spider mite test; format: in vivo, Tetranychus urticae; settings: 4 days; further: ranges in brackets are in %
Procedure: In this evaluation, each compound to be tested was dissolved in a 1:1 mixture of acetone and ethanol containing a small amount of Toximul R and Toximul S (each a sulfonate/nonionic blend produced by Stephan Chemical Company, Northfield, Ill.). The solution was then diluted with distilled water to a concentration of 1000 ppm of test compound. Lesser concentration formulations were made by diluting a portion of the 1000 ppm solution with distilled water containing 225 mg. of Toximul R and 125 mg. of Toximul S per liter.
This test was conducted with nymphs and adults of Tetranychus urticae (Koch), Order Acarina, Family Tetranychidae.
This test was run using blue hubbard squash plants which were grown in vermiculite (insulation grade No. 1) in 5 oz. plastic Dixie cups. One cotyledon is removed from each plant to remain in the cups. On retests two plants were left in each cup and on regular initial tests one plant was left in each cup. Each cotyledon is infested by placing a mite infested trifoliate bean leaf on if. Infected plants in cups were held for one day, then sprayed to wetting with formulations containing 1000 ppm of the test compound, using the DeVilbiss atomizer with 5-6 psi air pressure. Retests were run at 100 ppm. Tests were read four days after treatment. Two unsprayed but infested plants were held as a control. Two infested plants were sprayed with a formulation containing 750 ppm of galecron [N'-(4-chloro-o-tolyl)-N,N-dimethylformamidine monohydrochloride] as a reference standard.

O=[N+]([O-])c1cc(C(F)(F)F)cc2c1NC(O)(C(F)(F)C(F)F)N2 (stereo not shown) [Example 2, 2-Hydroxy-2-(1,1,2,2-Tetrafluoroethyl)-4-Nitro-6-(Trifluoromethyl)Benzimidazoline, Sodium Salt, and Hydrate]
plant injury rating ([1]; 1/2 lb/A): 1 (no injury) | plant injury rating ([1]; 1/4 lb/A): 1 (no injury) | plant injury rating ([1]; 1 lb/A): 1 (no injury) | plant injury rating ([1]; 2 lb/A): 1 (no injury) | plant injury rating ([1]; 4 lb/A): 1 (no injury) | plant injury rating ([1]; 8 lb/A): 3SB | plant injury rating ([2]; 1/2 lb/A): 2S | plant injury rating ([2]; 1/4 lb/A): 1 (no injury) | plant injury rating ([2]; 2 lb/A): 4SR | plant injury rating ([2]; 4 lb/A): 4RS | plant injury rating ([2]; 8 lb/A): 5D | plant injury rating ([3]; 1/2 lb/A): 1 (no injury) | plant injury rating ([3]; 1/4 lb/A): 1 (no injury) | plant injury rating ([3]; 1 lb/A): 1 (no injury) | plant injury rating ([3]; 2 lb/A): 2S | plant injury rating ([3]; 4 lb/A): 2S | plant injury rating ([3]; 8 lb/A): 5N | plant injury rating ([4]; 1/2 lb/A): 1 (no injury) | plant injury rating ([4]; 1/4 lb/A): 1 (no injury) | plant injury rating ([4]; 1 lb/A): 1 (no injury) | plant injury rating ([4]; 2 lb/A): 2B | plant injury rating ([4]; 4 lb/A): 4BS | plant injury rating ([4]; 8 lb/A): 5N | plant injury rating ([5]; 1/2 lb/A): 1 (no injury) | plant injury rating ([5]; 1/4 lb/A): 1 (no injury) | plant injury rating ([5]; 1 lb/A): 1 (no injury) | plant injury rating ([5]; 2 lb/A): 2S | plant injury rating ([5]; 4 lb/A): 4BS | plant injury rating ([5]; 8 lb/A): 5D | plant injury rating ([6]; 1/2 lb/A): 3BS | plant injury rating ([6]; 1/4 lb/A): 2BS | plant injury rating ([6]; 1 lb/A): 4BS | plant injury rating ([6]; 2 lb/A): 5D | plant injury rating ([6]; 4 lb/A): 5D | plant injury rating ([6]; 8 lb/A): 5D | plant injury rating ([7]; 1/2 lb/A): 4BS | plant injury rating ([7]; 1/4 lb/A): 3BS | plant injury rating ([7]; 1 lb/A): 5D | plant injury rating ([7]; 2 lb/A): 5D | plant injury rating ([7]; 4 lb/A): 5D | plant injury rating ([7]; 8 lb/A): 5D | plant injury rating ([8]; 1/2 lb/A): 3BS | plant injury rating ([8]; 1/4 lb/A): 3BS | plant injury rating ([8]; 1 lb/A): 4BS | plant injury rating ([8]; 2 lb/A): 4BS | plant injury rating ([8]; 4 lb/A): 4BS | plant injury rating ([8]; 8 lb/A): 5D | plant injury rating ([9]; 1/2 lb/A): 2SB | plant injury rating ([9]; 1/4 lb/A): 2B | plant injury rating ([9]; 1 lb/A, Hydrate): 3BS and 4BS | plant injury rating ([9]; 2 lb/A): 5D | plant injury rating ([9]; 4 lb/A): 5D | plant injury rating ([9]; 8 lb/A): 5D | plant injury rating ([10]; 1/2 lb/A): 2B | plant injury rating ([10]; 1/4 lb/A): 2B | plant injury rating ([10]; 2 lb/A): 3BS | plant injury rating ([10]; 4 lb/A): 4BS | plant injury rating ([10]; 8 lb/A): 5D | plant injury rating ([11]; 1/2 lb/A): 3BS | plant injury rating ([11]; 1/4 lb/A): 3BS | plant injury rating ([11]; 2 lb/A): 5D | plant injury rating ([11]; 4 lb/A): 5D | plant injury rating ([11]; 8 lb/A): 5D | Southern Armyworm Stom. (mortality rating) [12]: 0 (0) | 2-Sp. Spider Mite Cont. (mortality rating) ([13]; 100 ppm): 3 (100) | 2-Sp. Spider Mite Cont. (mortality rating) ([13]; 1000 ppm): 3 (100)

O=[N+]([O-])c1cc(C(F)(F)F)cc2c1NC(O)(C(F)(F)C(F)F)N2O (stereo not shown) [Example 12, 1,2-Dihydroxy-2-(1,1,2,2-Tetrafluoroethyl)-4-Nitro-6-(Trifluoromethyl)Benzimidazoline]
plant injury rating ([1]; 1/2 lb/A): 1 (no injury) | plant injury rating ([1]; 1 lb/A): 1 (no injury) | plant injury rating ([1]; 2 lb/A): 1 (no injury) | plant injury rating ([1]; 8 lb/A): 1 (no injury) | plant injury rating ([2]; 1/2 lb/A): 1 (no injury) | plant injury rating ([2]; 1 lb/A): 3S | plant injury rating ([2]; 2 lb/A): 4S | plant injury rating ([2]; 8 lb/A): 5N | plant injury rating ([3]; 1/2 lb/A): 1 (no injury) | plant injury rating ([3]; 1 lb/A): 1 (no injury) | plant injury rating ([3]; 2 lb/A): 1 (no injury) | plant injury rating ([3]; 8 lb/A): 2S | plant injury rating ([4]; 1/2 lb/A): 1 (no injury) | plant injury rating ([4]; 1 lb/A): 1 (no injury) | plant injury rating ([4]; 2 lb/A): 1 (no injury) | plant injury rating ([4]; 8 lb/A): 3BS | plant injury rating ([5]; 1/2 lb/A): 1 (no injury) | plant injury rating ([5]; 1 lb/A): 1 (no injury) | plant injury rating ([5]; 2 lb/A): 1 (no injury) | plant injury rating ([5]; 8 lb/A): 4RS | plant injury rating ([6]; 1/4 lb/A): 3BS | plant injury rating ([6]; 1/8 lb/A): 3BS | plant injury rating ([6]; 1 lb/A): 5D | plant injury rating ([6]; 2 lb/A): 5D | plant injury rating ([6]; 8 lb/A): 3BS | plant injury rating ([7]; 1/4 lb/A): 3BS | plant injury rating ([7]; 1/8 lb/A): 3BS | plant injury rating ([7]; 1 lb/A): 5D | plant injury rating ([7]; 2 lb/A): 5D | plant injury rating ([7]; 8 lb/A): 5D | plant injury rating ([8]; 1/4 lb/A): 2B | plant injury rating ([8]; 1/8 lb/A): 2S | plant injury rating ([8]; 1 lb/A): 4BS | plant injury rating ([8]; 2 lb/A): 4BS | plant injury rating ([8]; 8 lb/A): 3BS | plant injury rating ([9]; 1/4 lb/A): 2B | plant injury rating ([9]; 1/8 lb/A): 2SB | plant injury rating ([9]; 1 lb/A): 4BS | plant injury rating ([9]; 2 lb/A): 4BS | plant injury rating ([9]; 8 lb/A): 4BS | plant injury rating ([10]; 1/4 lb/A): 1 (no injury) | plant injury rating ([10]; 1/8 lb/A): 1 (no injury) | plant injury rating ([10]; 1 lb/A): 3BS | plant injury rating ([10]; 2 lb/A): 3BS | plant injury rating ([10]; 8 lb/A): 2B | plant injury rating ([11]; 1/4 lb/A): 3B | plant injury rating ([11]; 1/8 lb/A): 2B | plant injury rating ([11]; 1 lb/A): 5D | plant injury rating ([11]; 2 lb/A): 5D | plant injury rating ([11]; 8 lb/A): 4BS | Southern Armyworm Stom. (mortality rating) [12]: 0 (0) | 2-Sp. Spider Mite Cont. (mortality rating) ([13]; 1000 ppm): 3 (100)
